Assay results from patent publication US11918645B2, “Vaccines against hepatitis B virus” (priority 2012, dated 2024).
“Also recorded” adds a separate entry of the source.

Columns and labels:
[1] = test system: PBMC from chronic HBV-infected subjects; assay: IFNγ ELISpot of PBMC restimulated with individual unconjugated HBV long peptides (Example 5); format: cell-based, human; settings: for T cell responses (IFNγ ELISpot), level and frequency of responders: HBeAg-negative inactive carriers and HBeAg-negative treated subjects, 5 μg/mL, 18 h, FIGS. 9 and 10; for T cell responses (IFNγ ELISpot) grouped by infecting HBV genotype: genotypes A, B, C & D, FIG. 11; for T cell responses (IFNγ ELISpot) grouped by ethnic background: three ethnic groups, FIG. 12
Description: One vial of PBMC from each subject (containing 1×10^7 cells) was thawed and lymphocyte numbers were determined using a Scepter™ automated handheld cell counter. PBMC were cultured in 2 mL culture medium (CM: RPMI-1640 Glutamax supplemented with 5% human AB serum) in 24 well cell culture plates at a concentration of 1×10^6 cells/mL for a total of 11 days. Cells were stimulated with a mixture of the nine HBV-derived long peptides described in Example 3.
Each peptide was used at a final concentration of 1 μg/peptide/mL. On Day 4, IL-2 and IL-15 were added to the cultures to final concentrations of 10 IU/mL and 10 ng/mL respectively. On Day 10, cells were washed twice in CM and cultured with 10 IU/mL IL-2 for 1 additional day. On Day 11, cells were washed twice in CM, counted and incorporated in a human IFNγ (interferon-gamma) ELISpot assay or intracellular cytokine staining.
Cells from short term cultures were plated in triplicate wells at 5×10^4 PBMC/well. Final antigen concentrations used were: 5 μg/mL for each individual peptides; PHA positive control: 1 μg/mL.

BALB/c mice = assay: Immunogenicity in mice, IFNγ ELISpot of splenocytes, FP02.1 vs NP02.1 (Example 6); format: in vivo; settings: mice immunised with FP02.1 or NP02.1, restimulation 5 μg/mL/peptide, FIG. 15
Description: The immunogenicity in mice of FP02.1 (containing nine fluorocarbon-conjugated peptides) was compared to NP02.1 (containing nine equivalent unconjugated peptides).
Alternatively, splenocytes were stimulated in vitro with 5 μg/mL/peptide of nine individual peptides for 18 hours in an ELISpot assay. The number of IFNγ+ spot forming cells (SFC) was counted. Plates then were washed with PBS, incubated with an IFNγ detection peroxidase-labelled antibody, followed by a substrate, according to the manufacturer's instructions.

HLA class I alleles = assay: ProImmune REVEAL MHC class I binding assay, summary over the seven alleles; set-up: species or system human; settings: for Number of allele (b): number of class I alleles for which positive binding was detected; for Number of HLA binders (a): total number binding epitopes detected for each long peptide, seven class I alleles
From the text: The number of HLA class I binding registers contained in each peptide may be determined by determining the ability of the peptide to bind to a range of frequently occurring HLA class I molecules. HLA class I binding may be measured using the ProImmune REVEAL® MHC-peptide Binding Assay (ProImmune Ltd, Oxford, UK). The REVEAL™ MHC peptide-binding assay measures the ability of each peptide to stabilize the ternary MHC-peptide complex for […], HLA-A*0201, HLA¬A*0301, HLA-A*2402, HLA-B*0702, HLA-B*0801, HLA-B*3501 representative of main HLA class I supertypes. Each tested peptide is given a score relative to a pass/fail control peptide and also compared to a positive control peptide.
Detection is based on the presence or absence of the native conformation of the MHC-peptide complex. The highly frequent HLA class I alleles (HLA-A*0201, A*0301, A*1101, A*2402, B*0702, B*0801, and B*3501) were selected. Binding to MHC molecules was compared to that of a known T-cell epitope, a positive control peptide, with very strong binding properties. […] The score of the test peptide is reported quantitatively as a percentage of the signal generated by the positive control peptide, and the peptide is indicated as having a putative pass or fail result. Good binders are considered to be those peptides with scores 45% of the positive control as defined by ProImmune.

[2] = test system: HLA-DP4 (α1*01:03;β1*04:01); assay: ProImmune REVEAL MHC class II binding assay of long peptides; set-up: species or system human; settings: percentage of the signal of the positive control peptide; positive binding score >=15%
[3] = test system: HLA-DR11 (α1*01:01;β1*11:01); assay: as above; set-up: species or system human; settings: percentage of the signal of the positive control peptide; positive binding score >=15%
From the text: The highly frequent HLA class II alleles HLA-DR1 (α1*01:01;β1*01:01), HLA-DR15 (α1*01:01;β1*15:01), HLA-DR3 (α1*01:01;β1*03:01), HLA-DR4 (α1*01:01;β1*04:01), HLA-DR11 (α1*01:01;β1*11:01), HLA-DR13 (α1*01:01;β1*13:01), and HLA-DR7 (α1*01:01;β1*07:01) were selected. Each peptide was given a score relative to the positive control peptide, which is a known T-cell epitope.

HLA class II alleles = assay: ProImmune REVEAL MHC class II binding assay, summary over the seven alleles; set-up: species or system human; settings: number of class II alleles for which positive binding (score >=15%) was detected
From the text: The highly frequent HLA class II alleles HLA-DR1 (α1*01:01;β1*01:01), HLA-DR15 (α1*01:01;β1*15:01), HLA-DR3 (α1*01:01;β1*03:01), HLA-DR4 (α1*01:01;β1*04:01), HLA-DR11 (α1*01:01;β1*11:01), HLA-DR13 (α1*01:01;β1*13:01), and HLA-DR7 (α1*01:01;β1*07:01) were selected. Each peptide was given a score relative to the positive control peptide, which is a known T-cell epitope. The score of the test peptide is reported quantitatively as a percentage of the signal generated by the positive control peptide, and the peptide is indicated as having a putative pass or fail result. Good binders are considered to be those peptides with scores >=15% of the positive control as defined by Proimmune.

Row | Substance | T cell responses (IFNγ ELISpot), level and frequency of responders [1] | T cell responses (IFNγ ELISpot) grouped by infecting HBV genotype [1] | T cell responses (IFNγ ELISpot) grouped by ethnic background [1] | IFNγ response of splenocytes to each individual peptide component (BALB/c mice) | IFNγ response of splenocytes to each individual peptide component (BALB/c mice; listed as P113) | Number of allele (b) (HLA class I alleles) | Number of HLA binders (a) (HLA class I alleles) | binding score, HLA-DP4 (α1*01:03;β1*04:01) [2] [%] | binding score, HLA-DR11 (α1*01:01;β1*11:01) [3] [%] | Number of allele (a) (HLA class II alleles)
1 | NP113: unconjugated HBV long peptide, polymerase region 96-130 of virtual HBV proteome (VGPLTVNEKRRLKLIMPARFYPNVTKYLPLDKGIK; HBV CONSENSUS SEQUENCE) | highest level of responses in both patient populations and in the highest proportion of subjects | highest responses across all four genotypes A, B, C & D; also recorded: highest T cell response across all four genotypes compared to all other peptides | highest responses across all three ethnic groups | immune responses were dominated by four out of the 9 peptides contained in the vaccine | only observed with the formulation containing the fluorocarbon-conjugated peptides | 7 | 20 | 33.51 |  | 
2 | NP151: unconjugated HBV long peptide, polymerase region 134-168 (PEHVVNHYFQTRHYLHTLWKAGILYKRETTRSASF; HBV CONSENSUS SEQUENCE) | highest level of responses in both patient populations and in the highest proportion of subjects | highest responses across all four genotypes A, B, C & D | highest responses across all three ethnic groups | immune responses were dominated by four out of the 9 peptides contained in the vaccine |  | 6 | 21 | 74.36 |  | 
3 | NP753(K): unconjugated HBV long peptide, core KK + 738-770 (S to T at 743) + KKK (KKKEFGATVELLSFLPSDFFPSVRDLLDTASALYRKKK; HBV CONSENSUS SEQUENCE) | highest level of responses in both patient populations and in the highest proportion of subjects | highest responses across all four genotypes A, B, C & D | highest responses across all three ethnic groups |  |  | 6 | 10 | 0.65 | 1.51 | 0
